According to patent publication EP0042354A2, “Imidazobenzothiadiazepines, process for their preparation and pharmaceutical compositions containing them” (CIBA-GEIGY AG, priority 1980, dated 1981):

How the values were obtained:
Type in all cases: in vivo
Ratten = experiment: Sidman avoidance test (conditioned avoidance, lever press to postpone foot shock), rats; conditions: Rattus norvegicus, compound given 30, 90 and 210 min before the test, total dose, read-out: Gesamtdosis, welche die Vermeidungs-Reaktionen vermindert
Source text: (§1) Die Verbindungen der Erfindung zeigen wertvolle pharmakologische Eigenschaften, in erster Linie neuroleptische Wirkungen. Diese können in Tierversuchen, vorzugsweise an Säugern, z.B. Mäusen, Ratten oder Affen, als Testobjekte, nachgewiesen werden. Die genannten Verbindungen können ihnen enteral oder parenteral, vorzugsweise oral oder subkutan, intravenös oder intraperitoneal, z.B. durch Steckkapseln oder in Form von Stärke enthaltenden Suspensionen bzw. wässerigen Lösungen, verabreicht werden. Die verwendete Dosis kann in einem Bereich von ungefähr zwischen 0,01 und 100 mg/kg/Tag, vorzugsweise ungefähr 0,05 und 10 mg/kg/Tag, insbesonder zwischen 0,1 und 5 mg/kg/Tag, liegen.
(§2) Die genannten neuroleptischen Eigenschaften können an ausgewachsenen Ratten oder Totenkopf-Aeffchen (squirrel monkeys) nachgewiesen werden. Die Tiere sind zur Betätigung eines Hebels trainiert, wodurch sie einem auf den Fuss verabreichten elektrischen Schock ausweichen können. Jeder Hebeldruck verschiebt den Schock um 30 Sekunden. Vergisst das Tier den Hebel innerhalb des genannten Zeitintervalls einmal zu drücken, so werden alle 15 Sekunden kurze (0,5 sec.) elektrische Schocks abgegeben, bis das Tier den Hebel wieder betätigt. […]

[1] = test system: Totenkopf-Aeffchen (squirrel monkeys); experiment: Sidman avoidance test (conditioned avoidance, lever press to postpone foot shock), monkeys; conditions: Saimiri, in Primates, compound given 30, 90 and 210 min before the test, total dose, read-out: Gesamtdosis, welche die Vermeidungs-Reaktionen vermindert
Source text: as §1, §2

Totenkopf-Aeffchen = experiment: Extrapyramidal side effects and neurological symptoms observed in haloperidol-sensitised squirrel monkeys
Source text: Die bei den klassischen Neuroleptica bekannten extrapyramidalen Nebenwirkungen (ENW) lösen in Totenkopf-Aeffchen, welche vorher einer wiederholten antipsychotischen Behandlung unterworfen waren, charakteristische motorische Syndrome aus. Diese Bewegungsstörungen bestehen aus dystonischen Kõrperhaltungen und dyskinetischen Bewegungen, welche besser den bei Menschen auftretenden ENW entsprechen, als dies die Katalepsie oder Zittern tut. So können potentielle extrapyramidale Nebenwirkungen, aber gegebenenfalls auch andere neurologische Symptome, z.B. Ptosis, durch Beobachtung von ausgewachsenen Totenkopf-Aeffchen (von einem Gewicht von 700-1200 g) beurteilt werden. Die Tiere werden einmal wöchentlich oder einmal in zwei Wochen mit Haloperidol (1,25 mg/kg) behandelt. Nach einer derartigen Behandlung von ungefähr 2-4 Monaten treten 1-6 Stunden nach der Verabreichung von Haloperidol offensichtliche dystonische Körperhaltungen und dyskinetische Bewegungen auf. Sonst können in anderen Zeitpunkten keine abnormalen Bewegungen der Affen festgestellt werden. Nach dem Auftreten von, durch Haloperidol hervorgerufenen Dyskinesien, wird die oben geschilderte Behandlungsweise abgebrochen. Die Tiere erhalten nachher lediglich alle 4-8 Wochen 1,25 mg/kg Haloperidol und sie werden als Kontrolltiere bei der Untersuchung von Verbindungen dieser Erfindung eingesetzt.
Die Affen werden in Intervallen von 2, 4 und 6 Stunden nach der Behandlung beurteilt. Die Versuche werden in verschlossenen Zellen, welche mit ferngesteuerten Video-Beobachtungsapparaten und mit einem einheitlichen Summton-Generator ausgerüstet sind, durchgeführt. Die Beurteilungen der Tiere werden durch zwei voneinander unabhängige Beobachter vorgenommen, welche keine Kenntnis von den verabreichten Verbindungen und vom Ziel des Versuchs haben. Während der neurologischen Untersuchungen werden die Affen von einer dritten Person behandelt. Zuerst werden die Tiere durch das Video-System beobachtet. Dann betreten die Beobachter die Versuchstelle und notieren die Reaktionen der Affen als "motorisch" (das Tier geht umher in der Zelle), "visuell" (eine offenbare Reaktion, jedoch kein Umhergehen) und "keine" (keine Reaktion). Es werden auch Aktivität, Köperhaltung, Zittern, vermehrter Speichelfluss und andere neurologische Symptome berücksichtigt. Besondere Beachtung wird dem Vorhandensein oder Abwesenheit von "bizarren", vorher genannten, distonischen Körperhaltungen und dyskinetischen Bewegungen gewidmet. Die die Tiere behandelnde Person nimmt dann den Affen aus der Zelle heraus. Dabei werden die Reaktionen des Affen auf die Annäherung der mit einem Handschuh geschützten Hand, auf die erste Berührung beim Anfassen undauf die Hemmnisse nach der Gefangennahme, separat aufgeschrieben. Die Vokalisation während der Gefangennahme wird auch beurtielt. Die Person, welche das Tier behandelt, wertet dann den Körpertonus und die Pupillengrösse aus und stellt fest, ob Ptosis vorhanden ist. Hat die vorhergehende Untersuchung nahegelegt, dass Katalepsie aufgetreten ist, so wird dieses Symptom ausgewertet. Der Affe wird zuerst, Kopf nach unten, auf den Boden, dann zum Zelleneingang und schliesslich in die Beobachtungszelle gestellt. Bleibt der Affe in allen diesen Stellungen mindestens 5 Sekunden im wesentlichen unbeweglich, so wird das Vorhandensein der Katalepsie bejaht. […]

CN1CCN(C2=Nc3ccccc3Sc3nccn32)CC1 [Beispiel 1, 5-(4-Methylpiperazino)-imidazo[2,1-b][1,3,5]benzothia-diazepin]
minimal effective dose (Ratten): ≤ 10 mg/kg
minimal effective dose [1]: ≤ 10 mg/kg
vermehrter Speichelfluss (Totenkopf-Aeffchen; in vivo): nicht festellbar

CN1CCN(C2=Nc3cc(Cl)ccc3Nc3ccccc32)CC1 [Clozapin]
dyskinetische Bewegungen / Dyskinesien (Totenkopf-Aeffchen; 10 mg/kg, monkeys rated 2, 4 and 6 h after treatment): nicht aufgetreten
vermehrter Speichelfluss (Totenkopf-Aeffchen; monkeys rated 2, 4 and 6 h after treatment, doses as in the dyskinesia test): bei jedem untersuchten Affen

O=C(CCCN1CCC(O)(c2ccc(Cl)cc2)CC1)c1ccc(F)cc1 [Haloperidol]
dyskinetische Bewegungen / Dyskinesien (Totenkopf-Aeffchen; 0,625 mg/kg (low dose), monkeys rated 2, 4 and 6 h after treatment): an fünf Affen feststellbar
dyskinetische Bewegungen / Dyskinesien (Totenkopf-Aeffchen; 1,25 mg/kg, monkeys rated 2, 4 and 6 h after treatment): schwere Dyskinesie
